Laboratory results taken from publication PMC6048268, “Resveratrol Inhibits Key Steps of Steroid Metabolism in a Human Estrogen-Receptor Positive Breast Cancer Model: Impact on Cellular Proliferation” (Frontiers in Pharmacology, 2018).

Key:
[1] = system: steroid metabolism in MDA-MB-231 cells; assay: Inhibition of steroid metabolism by RES in MDA-MB-231 cells (LC–HRMS); type: cell-based, human; details: MDA-MB-231, 100 μM RES, 100 nM DHEA or E1, 48 h
Experimental: Briefly, cartridges were preconditioned with 2 × 1.0 ml acetonitrile and 3 × 1.0 ml ammonium acetate buffer (10 mM, pH = 5.0), and the samples were loaded onto the columns. After washing with 1 × 1.0 ml ammonium acetate buffer (10 mM, pH = 5.0) and 2 × 1.0 ml acetonitrile/ammonium acetate buffer (10 mM, pH 5.0) 10:90 (v/v), the analytes were eluted using 2 × 650 μl acetonitrile/ammonium acetate buffer (10 mM, pH = 5.0) 95:5 (v/v) and evaporated until dry. Subsequently, samples were reconstituted in 270 μl acetonitrile/ammonium acetate buffer (10 mM, pH = 5.0) 25:75 (v/v) and stored at -80°C until further LC–HRMS analysis.
After media collection, cell monolayers were washed five times with 2.0 ml DPBS, detached using 400 μl TrypLE® solution (37°C, 5 min), mixed with 600 μl DPBS and transferred into sample vials. Aliquots of these suspensions (100 μl each) were diluted and counted using the Casy® TT Cell Counter to determine the exact number of cells per sample well. […]
LC was performed with an UltiMate 3000 RSLC-series system coupled to a maXis HD ESI-Qq-TOF mass spectrometer (Bruker Corporation, Bremen, Germany). […] In the range of m/z 150–500, full-scan mass spectra were recorded.
The modes of inhibition were subsequently determined from Lineweaver–Burk plots, and the corresponding Ki values were calculated from Dixon plots using GraphPad Prism 6.0.

[2] = biological target: estrogen sulfation, S9 fractions from human liver; parameters: method as in Furimsky et al. (2008); details: ref Furimsky et al. (2008), read-out: Ki, inhibition of estrogen sulfation; cited from earlier work
[3] = system: SULT2A1 mRNA; assay: Real-time PCR, SULT2A1 mRNA expression in MCF-7 cells; type: cell-based, human; details: 10 μM RES, 24 and 48 h, data not shown
Experimental: MCF-7 breast cancer cells were seeded in 6-well plates at a density of 1.0 × 10^6 cells per well and allowed to attach overnight. […] Expression profiling of genes of interest was performed as detailed previously ([Mechtcheriakova et al., 2007]; [Meshcheryakova et al., 2016]). Upon treatment, total RNA was isolated using peqGOLD TriFAST^TM reagent (VWR, Vienna, Austria) according to the manufacturer’s protocol. 1 μg RNA was used for cDNA generation using the High Capacity cDNA Reverse Transcription Kit (Thermo Fisher Scientific, Inc.) according to the instructions of the manufacturer. Real-time PCR analysis was performed in the 96-well plate format on a QuantStudio 12K Flex Real-Time PCR System (Thermo Fisher Scientific, Inc.). SULT1A1 and SULT2A1 were detected using the corresponding TaqMan Assays (Thermo Fisher Scientific, Inc.). […] HKGs primers were self-designed using the Primer Express 3.0 software (Thermo Fisher Scientific, Inc.) and validated using the Human Total RNA Master Panel (TaKaRa Bio, Inc., Saint-Germain-en-Laye, France), as described before ([Mechtcheriakova et al., 2007], [2011]); Primers: UBC forward: […]; UBC reverse: […]; GAPDH forward: […]; GAPDH reverse: […]; ACTB forward: […]; ACTB reverse: […]. For relative quantification, data were analyzed by applying the ΔΔCT method. […]

[4] = system: serum E2 concentrations; parameters: method as in Chow et al., 2014; details: post-menopausal women, 1 g RES once a day for 12 weeks, non-significant; ref Chow et al., 2014; cited from earlier work
[5] = system: MDA-MB-231 cells; assay: Cell proliferation, Casy cell counting, MDA-MB-231; type: cell-based, human
Experimental: MDA-MB-231 and MCF-7 breast cancer cells were purchased from the American Type Culture Collection (ATCC; Manassas, VA, United States) and routinely cultivated at 37°C (95% humidity and 5% CO2) in phenolred-free Dulbecco’s modified Eagle medium F-12 (DMEM/F-12), fortified with 1% PenStrep®-solution and 10% fetal bovine serum (Invitrogen; Thermo Fisher Scientific, Inc., Waltham, MA, United States). All experiments were performed during the exponential growth phase of both cell lines. For the experiments, cells were seeded in 6-well-plates at a density of 1.0 × 10^6 cells per well and allowed to attach for 24 h.
Prior to cell counting with a Casy® TT Cell Counter (OLS OMNI Life Science, Bremen, Germany), the supernatant medium was removed and cells were detached using 400 μl TrypLe® solution (Invitrogen). All experiments were performed in triplicate, and the data were reported as the means ± standard deviation of all values.

SMILES: Oc1ccc(/C=C/c2cc(O)cc(O)c2)cc1 [RES, 3,5,4′-trihydroxy-trans-stilbene]
- effect on formation of DHEA-S, E1-S, E2-S and E2-G [1]: did not affect
- effect on formation of unconjugated AD, T and E2 [1]: no significant influence
- Ki [2]: 1.1 µM
- effect on SULT2A1 expression [3]: marginally down-regulated
- increase in serum E2 concentrations [4]: 22.4%
- number of viable cells ([5]; 2.5 μM RES, 48 h, seeded 1.0 × 10^6): 2.03 ± 0.16 × 10^6 cells
- reduction of number of viable cells ([5]; 100 μM RES, 48 h): 68.6 ± 4.7%
- IC50 ([5]; Homo sapiens, MDA-MB-231, 48 h, steroid-deprived, read-out: IC50 (inhibition of cell growth)): 15.1 ± 4.9 µM
- effect of simultaneous incubation with RES and E1 on cell proliferation ([5]; RES 0–100 μM with E1, 48 h): no observable effect
